In assay [1] the target is T1, C. difficile Glutamate 2,3-aminomutase (Clostridioides difficile, UniProt Q185C5, V264I).
T1 construct: made in house; host or cells: E. coli BL21(DE3) CodonPlus RILP, pET23a(+)
It counts as biochemical, Clostridium difficile. Conditions: for Keq: 24° C. On the procedure:
Measurement of the Equilibrium Constant for Conversion of L-Glutamate into β-Glutamate Catalyzed by Glutamate 2,3-aminomutase. Assays were conducted as previously described (see activity measurements above) except at 24° C. […] Initial enzyme concentrations were either 0.75 μM or 0.15 μM. After approximately 4 hours at 24° C., an additional aliquot of enzyme was added to make the final enzyme concentration either 1.5 μM or 0.3 μM, and the reaction was allowed to proceed for an additional 16 hours at 24° C. The reaction was stopped with 0.55 N perchloric acid, and the amino acids were derivatized with PITC as previously described. Following HPLC separation of the PITC derivatized L-glutamate and β-glutamate, the simple ratio of the peak areas of the two compounds was calculated based on the equivalent extinction coefficient of the two compounds (20).

For assay [2], the target named is T1, C. difficile Glutamate 2,3-aminomutase. It counts as biochemical, Clostridium difficile. Conditions: for rate of reaction to the other isomer: 20 mM substrate; for Specific Activity: substrate 20 mM. On the procedure:
Glutamate 2,3-aminomutase Activity Measurements. Enzyme assays were conducted in an anaerobic chamber (Coy, Grass Lake, Mich.) at 37° C. […] At various time intervals (0-3 min), 45 μl of reaction mix was added to 15 μl of 2N perchloric acid to stop the reaction. Samples were centrifuged at 14,000×g for 10 min. The supernatant fluids were treated with PITC according to the method of Heinrikson and Meredith (20). Samples were dissolved in 100 μl of coupling buffer, concentrated to dryness by vacuum centrifugation, redissolved in 400 μl coupling buffer plus 20 μl of PITC, allowed to react for 30 min at room temperature, concentrated to dryness as above, and dissolved in either 0.5 or 1.0 ml water prior to injection (50 or 100 μl). The PITC derivative of L-glutamate was separated from the β-glutamate derivative by HPLC chromatography (20) using a C18 reverse phase column (Phenomenex Gemini 5μ, 4.6 mm×25 cm, #G-4435-E0), flow rate 1 ml/min, room temperature. The PITC-amino acids were separated with a linear gradient composed of 0.05 M ammonium acetate in water (buffer A) and 0.1 M ammonium acetate in 44% water, 46% acetonitrile, and 10% methanol (buffer B). The gradient established was 0-10% Buffer B in 20 min, 10-100% Buffer B in 10 min. […] Concentrations of L-glutamate or β-glutamate were measured using an amino acid standard solution (Pierce Chemical Co., #20088). For enzyme activity measurements at selected time points, the peak area of either L-glutamate or β-glutamate was divided by the total peak area (L-glutamate+β-glutamate) and multiplied by the starting concentration of either L-glutamate or β-glutamate to obtain molar concentrations. Enzyme kinetic parameters were determined by varying the concentration of L-glutamate (0.6-20 mM). Two separate analyses were conducted at two concentrations of enzyme (0.75 and 0.15 μM—subunit) with remaining conditions as stated above. Initial velocities were measured and used to calculate kinetic parameters (Vmax and Km) by the nonlinear least squares curve fitting method of Cleland (25).

Broadly, the kcat is the maximal rate divided by the concentration of active sites. By Km is commonly meant the concentration of substrate that gives half-maximal velocity.

The structures appear in SMILES notation. Read-outs that look alike come from different tables or passages of the source.

Turning to `N[C@@H](CCC(=O)O)C(=O)O` [L-Glutamate, L-glutamate], the Keq in assay [1] ([L-Glutamate] start 0.6 mM, [Enzyme] 1.5 μM (subunit)) came to 14.2; in assay [1] ([L-Glutamate] start 0.8 mM, [Enzyme] 0.30 μM (subunit)), 14.8; in assay [1] ([L-Glutamate] start 1.4 mM, [Enzyme] 1.5 μM (subunit)) it was 15.2; in assay [1] ([L-Glutamate] start 1.6 mM, [Enzyme] 0.30 μM (subunit)), 15.7; in assay [1] ([L-Glutamate] start 3.1 mM, [Enzyme] 1.5 μM (subunit)) it was 16.0; in assay [1] ([L-Glutamate] start 3.2 mM, [Enzyme] 0.30 μM (subunit)), 15.9. In addition, the Keq was determined as 15.9 in assay [1] ([L-Glutamate] start 6.4 mM, [Enzyme] 0.30 μM (subunit)); 15.6 in assay [1] ([L-Glutamate] start 6.6 mM, [Enzyme] 1.5 μM (subunit)); 15.6 in assay [1] ([L-Glutamate] start 12.4 mM, [Enzyme] 1.5 μM (subunit)); 16.3 in assay [1] ([L-Glutamate] start 12.9 mM, [Enzyme] 0.30 μM (subunit)); 15.5 in assay [1] ([L-Glutamate] start 22.1 mM, [Enzyme] 0.30 μM (subunit)); 15.3 in assay [1] ([L-Glutamate] start 22.9 mM, [Enzyme] 1.5 μM (subunit)). For the same molecule, the “rate of reaction to the other isomer” value in assay [2] is 5.9 μmoles min^−1· (mg protein)^−1. Besides, in assay [2] (37° C., forward direction), the maximum velocity is reported as 7 μmoles of β-glutamate min^−1· (mg protein)^−1. Besides, the Vmax in assay [2] (Assay 1, 37° C.) is 7.5 ± 0.18 μmoles · β-Glutamate min^−1 (mg protein)^−1; in assay [2] (Assay 2, 37° C.), 7.3 ± 0.19 μmoles · β-Glutamate min^−1 (mg protein)^−1. The kcat in assay [2] (Assay 1, 37° C.) stood at 6.2 s⁻¹; in assay [2] (Assay 2, 37° C.), 6.0 s⁻¹; in assay [2] (conditions of Table 3), 6 s⁻¹. Moreover, the Km was 2200 ± 160 µM in assay [2] (Assay 1, 37° C., read-out: Km (L-Glutamate)); 2300 ± 180 µM in assay [2] (Assay 2, 37° C., read-out: Km (L-Glutamate)); 2000 µM in assay [2] (forward direction, conditions of Table 3, read-out: Michaelis constant (Km)). For the same molecule, the “Specific Activity” value was 5.9 μmoles · min^−1 · mg^−1 Protein in assay [2] (SAM +, Dithionite +, 37° C.); 0.16 μmoles · min^−1 · mg^−1 Protein in assay [2] (SAM +, Dithionite −, 37° C.); <0.01 μmoles · min^−1 · mg^−1 Protein in assay [2] (SAM −, Dithionite +, 37° C.).

For the molecule `NCCCC[C@H](N)C(=O)O` [L-lysine, reference compound], in assay [2] (substrate specificity), the “conversion to β-lysine by glutamate 2,3-aminomutase” value is listed as “does not catalyze”.

For the molecule `O=S([O-])S(=O)[O-].[Na+].[Na+]` [dithionite, sodium dithionite, reference compound], the “effect of excess on enzyme activity” value in assay [2] (excess, progressive loss of activity over time at >70 μM (FIG. 3)) was “inhibitory”.

For the molecule `NC(CC(=O)O)CC(=O)O` [β-Glutamate, β-glutamate], the Keq in assay [1] ([β-Glutamate] start 0.6 mM, [Enzyme] 0.30 μM (subunit)) is recorded as 15.6; in assay [1] ([β-Glutamate] start 0.6 mM, [Enzyme] 1.5 μM (subunit)) it was 15.3; in assay [1] ([β-Glutamate] start 1.4 mM, [Enzyme] 0.30 μM (subunit)), 15.6; in assay [1] ([β-Glutamate] start 1.4 mM, [Enzyme] 1.5 μM (subunit)), 15.8; in assay [1] ([β-Glutamate] start 3.1 mM, [Enzyme] 0.30 μM (subunit)) it was 16.2; in assay [1] ([β-Glutamate] start 3.1 mM, [Enzyme] 1.5 μM (subunit)) it was 16.3. In addition, the Keq is on record as 15.7 in assay [1] ([β-Glutamate] start 6.2 mM, [Enzyme] 0.30 μM (subunit)); 16.4 in assay [1] ([β-Glutamate] start 6.2 mM, [Enzyme] 1.5 μM (subunit)); 16.6 in assay [1] ([β-Glutamate] start 12.3 mM, [Enzyme] 0.30 μM (subunit)); 16.4 in assay [1] ([β-Glutamate] start 12.3 mM, [Enzyme] 1.5 μM (subunit)); 15.9 in assay [1] ([β-Glutamate] start 22.9 mM, [Enzyme] 1.5 μM (subunit)); 16.1 in assay [1] ([β-Glutamate] start 24.3 mM, [Enzyme] 0.30 μM (subunit)). In assay [1] (same end point from either substrate), the “equilibrium ratio of β-Glu to L-glutamate” value was “approximately 16”. Moreover, the “rate of reaction to the other isomer” value in assay [2] is on record as 2.3 μmoles min^−1· (mg protein)^−1. In addition, the “Specific Activity” value in assay [2] (SAM +, Dithionite +, 37° C.) is listed as 2.3 μmoles · min^−1 · mg^−1 Protein.

Values taken from patent publication US7456271B2, “Glutamate 2,3-aminomutases and methods of use thereof” (Wisconsin Alumni Research Foundation, priority 2005, dated 2008).
